We go through 12 compounds from US7087641B2, “4β-1″-[(2″-substituted benzoyl) anilino]podophyllotoxin analogues useful as anticancer agents” (Council of Scientific & Industrial Research, priority 2002, dated 2006).

The subject of the test is tumor cell lines. The experiment in a line: Cytotoxicity (in vitro). In kind it is cell-based. The settings on record: range of GI50 values, cell lines not named. From the text:
A program was initiated in the laboratory for the design and synthesis of new 4β-aryl amino substituted podophyllotoxin congeners with enhanced antitumour activity and/or activity against etoposide resistant tumor cell lines. In these efforts new 4β-1″-[{2″-benzoyl substituted}anilino] podophyllotoxin derivatives have been synthesized and evaluated for their cytotoxicity and anticancer potency. […] The synthesis of these compounds has been carried out as described in the scheme using podophyllotoxin obtained from the resin. The cytotoxicity of 4a–4p values have been illustrated in the Table 1.

The term GI50 denotes the concentration at which growth is held to half of that of the control. Lower therefore signals more potent growth inhibition. The compound `COc1cc([C@@H]2c3cc4c(cc3[C@@H](Nc3ccccc3C(=O)c3ccccc3)[C@@H]3COC(=O)[C@H]23)OCO4)cc(OC)c1OC` [4a, 4β-1″-[2″-(Benzoyl)anilino]-4-desoxypodophyllotoxin] came in with a GI50 of 40 to 500 nM.
`COc1cc([C@@H]2c3cc4c(cc3[C@@H](Nc3ccccc3C(=O)c3ccccc3)[C@@H]3COC(=O)[C@H]23)OCO4)cc(OC)c1O` [4b, 4′-O-Demethyl-4β-1″-[2″-(benzoyl)anilino]-4-desoxypodophyllotoxin]: the 50% growth inhibitory concentration (GI50) fell in the range of 15000 to 382000 nM.
In turn, `COc1cc([C@@H]2c3cc4c(cc3[C@@H](Nc3ccc(Cl)cc3C(=O)c3ccccc3Cl)[C@@H]3COC(=O)[C@H]23)OCO4)cc(OC)c1OC` [4c, 4β-1″-[2″-(2-Chlorobenzoyl)-4″-chloroanilino]-4-desoxypodophyllotoxin] returned a GI50 of 59 to 876 nM.
For `COc1cc(C2c3cc4c(cc3C(Nc3ccc(Cl)cc3C(=O)c3ccccc3Cl)C3COC(=O)C23)OCO4)cc(OC)c1O` (stereo not drawn) [4d, 4′-O-Demethyl-4β-1″-[2″-(2-Chlorobenzoyl)-4″-chloroanilino]-4-desoxypodo-phyllotoxin], the GI50 lay within 100 to 240 nM.
Regarding `COc1cc([C@@H]2c3cc4c(cc3[C@@H](Nc3ccc([N+](=O)[O-])cc3C(=O)c3ccccc3)[C@@H]3COC(=O)[C@H]23)OCO4)cc(OC)c1O` [4f], the GI50 fell in the range of 10 to 240 nM.
Under `COc1cc(C2c3cc4c(cc3C(Nc3ccc(Cl)cc3C(=O)c3ccccc3)C3COC(=O)C23)OCO4)cc(OC)c1OC` (stereo not drawn) [4g, 4β-1″-[2″-(Benzoyl)-4″-chloroanilino]-4-desoxypodophyllotoxin] stands 70 to 1100 nM.
Take `COc1cc(C2c3cc4c(cc3C(Nc3ccc(Cl)cc3C(=O)c3ccccc3)C3COC(=O)C23)OCO4)cc(OC)c1O` (stereo not drawn) [4h]: the GI50 lay in the range of 14000 to 270000 nM.
With `COc1cc([C@@H]2c3cc4c(cc3[C@@H](Nc3ccc(Cl)cc3C(=O)c3ccccc3F)[C@@H]3COC(=O)[C@H]23)OCO4)cc(OC)c1OC` [4i, 4β-1″-[2″-(2-Fluorobenzoyl)-4″-chloroanilino]-4-desoxypodophyllotoxin], the 50% growth inhibitory concentration (GI50) fell in the range of 140 to 300 nM.
`COc1cc(C2c3cc4c(cc3C(Nc3ccc(Cl)cc3C(=O)c3ccccc3F)C3COC(=O)C23)OCO4)cc(OC)c1O` (stereo not drawn) [4j, 4′-O-Demethyl-4β-1″-[2″-(2-Fluorobenzoyl)-4″-chloroanilino]-4-desoxypodo-phyllotoxin] had a GI50 of 4 to 100 nM.
As to `COc1cc([C@@H]2c3cc4c(cc3[C@@H](Nc3cccc(C(=O)c5ccccc5)c3)[C@@H]3COC(=O)[C@H]23)OCO4)cc(OC)c1OC` [4k, 4β-1″-[3″-(Benzoyl)anilino]-4-desoxypodophyllotoxin], the GI50 lay in the range of 100 to 1000 nM.
For the compound `COc1cc([C@@H]2c3cc4c(cc3[C@@H](Nc3cccc(C(=O)c5ccccc5)c3)[C@@H]3COC(=O)[C@H]23)OCO4)cc(OC)c1O` [4l, 4′-O-Demethyl-4β-1″-[3″-(benzoyl)anilino]-4-desoxypodophyllotoxin], the GI50 was in the range of 2000 to 16000 nM.
On to `COc1cc(C2c3cc4c(cc3C(Nc3ccc(C(=O)c5ccccc5)cc3[N+](=O)[O-])C3COC(=O)C23)OCO4)cc(OC)c1O` (stereo not drawn) [4n], for which the GI50 is 10 to 240 nM.
